Active and inactive are the calls of the source. The rule behind the calls is not given here.
Assays:
Gamma-secretase [1] = assay: Inhibition of gamma-secretase in human SHSY5Y cells expressing Swedish variant of APP K595N/M596L assessed as reduction of amyloid beta 42 formation after 16 hrs by ELISA; assay type: cell-based; conditions: sh-sy5y
CV-1 = assay: Agonist activity at gamma-secretase expressed in african green monkey CV1 cells coexpressing Gal4 DNA-binding/transactivation domain assessed as increase of notch processing at 10 uM after 22 hrs by luciferase reporter assay; assay type: cell-based
Gamma-secretase [2] = assay: Inhibition of gamma-secretase in human SHSY5Y cells expressing Swedish variant of APP K595N/M596L assessed as reduction of amyloid beta 40 formation after 16 hrs by ELISA; assay type: cell-based; conditions: sh-sy5y
[3] = Inhibition of gamma-secretase expressed in african green monkey CV1 cells coexpressing Gal4 DNA-binding/transactivation domain assessed as inhibition of notch processing after 22 hrs by luciferase reporter assay; assay type: cell-based; conditions: CV-1, 22 h
[4] = Volume of distribution at steady state in Sprague-Dawley rat at 1 mg/kg, iv and 2 mg/kg, po; assay type: ADME, organism-based; conditions: in vivo, read-out: Vdss
[5] = Clearance in Sprague-Dawley rat blood at 1 mg/kg, iv and 2 mg/kg, po; assay type: ADME, organism-based
[6] = Oral bioavailability in Sprague-Dawley rat at 2 mg/kg; assay type: ADME, organism-based; conditions: in vivo
[7] = Half life in Sprague-Dawley rat at 1 mg/kg, iv and 2 mg/kg, po; assay type: ADME, organism-based; conditions: in vivo
[8] = Ratio of drug level in brain to blood in rat at 30 mg/kg, po after 6 hrs; assay type: ADME, organism-based; set-up: dose 30 mg/kg, route oral; conditions: read-out: BBR
[9] = Drug level in rat blood at 30 mg/kg, po after 6 hrs; assay type: ADME, organism-based; set-up: dose 30 mg/kg, route oral; conditions: read-out: Drug uptake
Rattus norvegicus = assay: Antialzheimer activity in rat assessed as reduction of amyloid beta 42 level in brain at 30 mg/kg, po after 6 hrs; assay type: functional; set-up: scale not given: the % may be the effect or the level left
[10] = Drug level in rat brain at 30 mg/kg, po after 6 hrs; assay type: ADME, organism-based; set-up: dose 30 mg/kg, route oral; conditions: read-out: Drug uptake
SH-SY5Y = assay: Cytotoxicity against human SH-SY5Y cells assessed as effect of cell viability at 100 uM after 24 hrs by WST1 assay; assay type: cell-based
[11] = target: T1, Gamma-secretase (Homo sapiens) (UniProt Q96BI3+Q9NZ42+Q8WW43+P49768+Q92542+P49810); assay: Inhibition of gamma-secretase in human SHSY5Y cells expressing Swedish variant of APP K595N/M596L assessed as reduction of amyloid beta 42 level after 24 hrs by DELFIA; assay type: cell-based; conditions: SH-SY5Y
[12] = target: T1, Gamma-secretase (Homo sapiens); assay: Inhibition of gamma-secretase in human SHSY5Y cells expressing Swedish variant of APP K595N/M596L assessed as reduction of total amyloid beta level after 24 hrs by DELFIA; assay type: cell-based; conditions: SH-SY5Y
[13] = target: T1, Gamma-secretase (Homo sapiens); assay: Inhibition of gamma-secretase in human SHSY5Y cells expressing Swedish variant of APP K595N/M596L assessed as reduction of amyloid beta 40 level after 24 hrs by DELFIA; assay type: cell-based; conditions: SH-SY5Y

| SMILES | pIC50 (Gamma-secretase [1]) | pIC50 (Gamma-secretase [2]) | IC50 [3] [µM] | further results |
| --- | --- | --- | --- | --- |
| COc1cc(-c2ccc(NC(C)(C)c3ccc(F)cc3)nn2)ccc1-n1cnc(C)c1 | 7 | 6.1 | – | Activity (CV-1): > 30% |
| COc1cc(-c2ccc(N[C@@H](C)c3ccccc3F)nn2)ccc1-n1cnc(C)c1 | 7.3 | 7.1 | 10 | – |
| COc1cc(-c2cc(C)c(N[C@@H](C)c3ccc(F)cc3)nn2)ccc1-n1cnc(C)c1.Cl | – | – | – | Vd [4]: 1.4 L/kg; clearance [5]: 5.1 mL/min/kg; bioavailability [6]: 98%; half-life [7]: 3.1 h |
| COc1cc(-c2ccc(NCc3ccc(F)cc3)nn2)ccc1-n1cnc(C)c1 | 6.5 | 6.2 | > 20 | – |
| COc1cc(-c2nnc(N[C@@H](C)c3ccc(F)cc3)cc2C)ccc1-n1cnc(C)c1 | 6.7 | 6.3 | 15.8 | – |
| COc1cc(-c2ccc(N[C@@H](C)c3ccccc3)nn2)ccc1-n1cnc(C)c1 | 7.1 | 6.8 | > 20 | – |
| CCc1cc(-c2ccc(-n3cnc(C)c3)c(OC)c2)nnc1N[C@@H](C)c1ccc(F)cc1 | 7.2 | 6.8 | – | Activity (CV-1): > 30% |
| COc1cc(-c2cc(C#N)c(N[C@@H](C)c3ccc(F)cc3)nn2)ccc1-n1cnc(C)c1 | 6.9 | 5.8 | 15.8 | – |
| COC[C@H](Nc1ccc(-c2ccc(-n3cnc(C)c3)c(OC)c2)nn1)c1ccccc1 | 6.8 | 6.5 | > 20 | – |
| COc1cc(-c2ccc(N[C@@H](C)c3cccc(F)c3)nn2)ccc1-n1cnc(C)c1 | 7.2 | 6.9 | > 20 | – |
| COc1cc(-c2ccc(N[C@H](c3ccc(F)cc3)C(C)(C)O)nn2)ccc1-n1cnc(C)c1 | 7.4 | 6.8 | 20 | – |
| COc1cc(-c2nnc(N[C@@H](C)c3ccc(F)cc3)c(C)c2C)ccc1-n1cnc(C)c1 | 6.5 | 5.9 | > 20 | – |
| COc1cc(-c2ccc(N[C@@H](C)c3ccc(F)cc3)nn2)ccc1-n1cnc(C)c1 | 7.2 | 6.7 | > 20 | – |
| COc1cc(-c2ccc(N[C@@H](C)c3ccc(C(F)(F)F)cc3)nn2)ccc1-n1cnc(C)c1 | 7.3 | 6.9 | > 20 | – |
| COc1cc(-c2cc(C(C)C)c(N[C@@H](C)c3ccc(F)cc3)nn2)ccc1-n1cnc(C)c1 | 7.3 | 7 | – | Activity (CV-1): > 30% |
| COc1cc(-c2cc(C(F)(F)F)c(N[C@@H](C)c3ccc(F)cc3)nn2)ccc1-n1cnc(C)c1 | 7 | 5.6 | – | Activity (CV-1): > 30% |
| COc1cc(-c2cc(C)c(N[C@@H](C)c3ccc(F)cc3)nn2)ccc1-n1cnc(C)c1 [listing 1 of 2 here] | 7.2 | 6.7 | 10 | Kp at 6 h [8]: 0.56; concentration at 6 h [9]: 16 µM; Activity (Rattus norvegicus): >20%; concentration at 6 h [10]: 9.09 µM; Activity (SH-SY5Y): Toxic |
| COc1ccc([C@H](C)Nc2ccc(-c3ccc(-n4cnc(C)c4)c(OC)c3)nn2)cc1 | 6.8 | 6.8 | > 20 | – |
| COc1cc(-c2ccc(NC(=O)c3ccc(F)cc3)nn2)ccc1-n1cnc(C)c1 | 5.6 | 4.7 | 1 | – |
| COc1cc(-c2cc(C)c(N[C@@H](C)c3ccc(F)cc3)nn2)ccc1-n1cnc(C)c1 [listing 2 of 2 here] | – | – | – | inhibition [11]: Dose-dependent effect; inhibition [12]: Active; inhibition [13]: Dose-dependent effect |
| CC[C@H](Nc1ccc(-c2ccc(-n3cnc(C)c3)c(OC)c2)nn1)c1ccc(F)cc1 | 7.3 | 6.9 | 10 | – |
| COc1cc(-c2ccc(N[C@H](C)c3ccc(F)cc3)nn2)ccc1-n1cnc(C)c1 | 6.2 | 6 | > 20 | – |

— ChEMBL document CHEMBL1795222, “Pyridazine-derived γ-secretase modulators” (Bioorg Med Chem Lett, 2011)
